Legend:
[1] = test system: RNF12 SR-motif; test: RNF12 SR-motif phosphorylation in mESCs by phos-tag immunoblotting; assay type: cell-based, mouse; conditions: 10 μM, 4 h
From the text: RNF12 4xSA = S212A/S214A/S227A/S229A. (B) Rlim^−^/y mESCs were transfected with the indicated RNF12 constructs and lysates treated with λ-phosphatase and analyzed by phos-tag immunoblotting for RNF12. Unphosphorylated recombinant RNF12 is included as a control. […] RNF12 4xSA is included as an unphosphorylated control. […] (F) Phosphorylated peptides detected by mass spectrometry following in vitro phosphorylation of RNF12 by SRPK1. pS, phospho-serine. (G) Autoradiography of RNF12 WT or S212A/S214A/S227A/S229A (4xSA) following a radioactive kinase reaction with SRPK1, SRPK2, or SRPK3. RNF12 protein is detected by Coomassie staining. (H) Srpk1^+/+ and Srpk1^−/− mESCs were transfected with control or SRPK2 siRNA and RNF12 SR-motif phosphorylation analyzed by phos-tag immunoblotting for RNF12. SRPK2, SRPK1, RNF12, and ERK1/2 levels were determined by immunoblotting. Related to Figure S2; Tables S3 and S4.
All compounds were diluted in DMSO and mESCs treated with 10 μM inhibitor for 4 h prior lysis unless indicated otherwise. […] For proteasome inhibition mESCs were treated with 10 μM MG132 (Sigma Aldrich) for 6 h. All chemicals are listed in the Key Resource Table.
Phos-tag analyses were performed by loading protein samples containing 10 mM MnCl2 in 8% polyacrylamide gels containing 50 μM Phos-tag reagent (MRC-PPU reagents and services) and 0.1 mM MnCl2. After electrophoresis, gels were washed three times for 10 mins in Transfer buffer (48 mM Tris, 39 mM Glycine, 20% Methanol) supplemented with 20 mM EDTA. Proteins were then transferred to Nitrocellulose membranes, blocked and probed with the indicated antibodies. All protein signals were quantified using Image Studio (LI-COR Biosciences) or Image Lab software (Bio-Rad). Primary antibodies are listed in the Key Resource Table. […]
SR-motif phosphorylation of HA-immunoprecipitated RNF12 analysed by phos-tag immunoblotting.
HA-RNF12 levels are shown as a control. Fully phosphorylated (4-P) and unphosphorylated (0-P) RNF12 SR-motif is indicated by open (○) and closed (●) circles respectively.
Data are represented as mean ± S.D. (n=3). (C) RNF12 expressing mESCs were treated with 10 […]
immunoblotting. HA-RNF12 and ERK1/2 levels are shown as a control. (D) RNF12 expressing […]
5 h (+ wash-out). RNF12 phosphorylation was analysed via phos-tag immunoblotting. ERK1/2 levels are shown as a loading control. (E) Multiple Srpk1-/- and Srpk2-/- mESC clones were […]

[2] = test system: Foxp1 exon 16-16b alternative splicing switch; test: Foxp1 exon 16-16b incorporation in mESCs by quantitative RT-PCR; assay type: cell-based, mouse; conditions: 8 h
Description: SRSF phosphorylation, SRPK1, SRPK2, and ERK1/2 levels were determined by immunoblotting. Expected positions of SRSFs that are not detected are shown in gray. Quantification of SRSF phosphorylation (Right). Data represented as mean ± SEM (n = 4). […] Neuro 2a is a control for exon 16b exclusion in differentiated cells (Bottom). Data represented as mean ± SEM (n = 3). […] Exon 16 inclusion: (^∗∗∗∗) p < 0.0001, Exon 16b inclusion: (^∗) p = 0.0164, p = 0.0485, and p = 0.0489 (left to right). Ratio exon 16b/16: (^∗∗∗∗) p < 0.0001, (^∗∗∗) p = 0.0003. (C) SRPK substrates predicted using ScanProsite and grouped according to UniProt functions. (D) RNF12 phosphorylation sites detected by mass-spectrometry. LZL, leucine-zipper like; NLS, nuclear localization signal; NES, nuclear export signal; RING, RING E3 ubiquitin ligase catalytic domain. (E) CMGC family kinase copy numbers in mESCs determined by quantitative proteomics and represented using Kinoviewer. (F) CMGC kinase (200 mU) phosphorylation of the RNF12 SR-motif in vitro was determined by immunoblotting for RNF12 phospho-Ser214 and total RNF12. […] Normalized RNF12 Ser214 phosphorylation is shown below. Data represented as mean ± SEM (n = 3). […] RNF12 SR-motif phosphorylation was analyzed by immunoblotting for RNF12 phospho-Ser214 and RNF12. SRPK1 and SRPK2 levels are shown as a loading control, Related to Figure S1; Tables S1 and S2.
Total RNA extraction and reverse transcription was performed as described. Quantitative PCR reactions using SsoFast EvaGreen Supermix (Bio-Rad) were performed in a CFX384 real time PCR system (Bio-Rad). Relative RNA expression was calculated through the ΔΔCt method and normalised to Gapdh expression. Data was analysed in Excel (Microsoft) and statistical analysis performed in GraphPad Prism v7.0c software (GraphPad Software Inc.).

[3] = test system: Ser-Arg rich splicing factors (SRSF); test: SRSF phosphorylation in mESCs, immunoblotting with phosphoepitope SR proteins antibody; assay type: cell-based, mouse; conditions: 10 μM, 4 h
[4] = test system: RNF12 phospho-Ser214; test: RNF12 SR-motif phosphorylation in mESCs, immunoblotting for RNF12 phospho-Ser214 and total RNF12; assay type: cell-based, mouse; conditions: 10 μM, 4 h
[5] = molecular target: SRPK1 (Homo sapiens, UniProt Q96SB4); assay type: biochemical; conditions: read-out: IC50, inhibition of RNF12 phosphorylation by SRPK1
Chain of SRPK1 (Q96SB4 whole entry): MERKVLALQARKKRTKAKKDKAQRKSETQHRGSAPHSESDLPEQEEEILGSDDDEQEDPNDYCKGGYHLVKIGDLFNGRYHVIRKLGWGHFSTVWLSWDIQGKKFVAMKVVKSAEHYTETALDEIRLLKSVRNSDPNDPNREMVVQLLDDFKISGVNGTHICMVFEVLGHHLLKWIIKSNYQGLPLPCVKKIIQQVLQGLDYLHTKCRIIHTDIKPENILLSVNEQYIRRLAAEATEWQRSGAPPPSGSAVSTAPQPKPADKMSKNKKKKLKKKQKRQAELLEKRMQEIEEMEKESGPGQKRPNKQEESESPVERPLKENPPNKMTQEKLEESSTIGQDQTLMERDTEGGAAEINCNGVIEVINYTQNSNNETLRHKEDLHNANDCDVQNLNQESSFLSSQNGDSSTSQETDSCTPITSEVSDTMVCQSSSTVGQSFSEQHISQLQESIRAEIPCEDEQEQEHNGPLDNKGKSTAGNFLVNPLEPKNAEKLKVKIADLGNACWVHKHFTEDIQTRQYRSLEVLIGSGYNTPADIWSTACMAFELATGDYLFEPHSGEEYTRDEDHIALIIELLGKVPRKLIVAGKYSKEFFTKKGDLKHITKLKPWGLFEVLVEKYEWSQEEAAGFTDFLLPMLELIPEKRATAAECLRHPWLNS
Description: Cells were lysed, and 1.5 mg of protein immunoprecipitated with 2 μg of SRPK1 or SRPK2 antibodies (BD Biosciences). Immunoprecipitates were then washed with lysis buffer supplemented with 500 mM NaCl and half of the sample was resuspended in loading buffer. The remainder was subjected to in vitro phosphorylation assay containing 0.5 μg RNF12 and 2 mM ATP in kinase buffer (50 mM Tris-HCl [pH 7.5], 0.1 mM EGTA, 10 mM MgCl2, 2 mM DTT) and incubated at 30°C for 30 min. […] For radioactive in vitro kinase assays, reactions were supplemented with 1 μCi γ-^32P ATP. Reactions were incubated at 30°C for 30 min in presence or absence of inhibitor as indicated and samples subjected to polyacrylamide electrophoresis and immunoblot or Coomassie blue staining and signal detected via ECL, infrared detection or autoradiography.
Supplemental Figure Legends
(Related to Figure 1). (A) Wild-type (WT) mESCs were analysed for protein copy number by absolute quantitative proteomics. […]
Data are represented as mean ± S.E.M. (n=3). […] ND = not detected. (B) Inhibition of RNF12 phosphorylation in vitro by SRPK1 and SRPK2 in the presence of varying concentrations of the indicated SRPK inhibitors was determined by immunoblotting for RNF12 phospho-Ser214 (Left). […] Immunoblots were quantified to generate SRPK inhibitor dose-response curves for inhibition of RNF12 phosphorylation by SRPK1 and SRPK2 in vitro (Right). […]

[6] = test system: RNF12 4xSA-KI mESCs; test: RNF12 localization by immunofluorescence in RNF12 4xSA-KI mESCs; assay type: cell-based, mouse; conditions: 30 nM, 6 h
Description: Figure 3 SRPK Phosphorylation of RNF12 Regulates Nuclear Anchoring and E3 Ubiquitin Ligase Activity (A) RNF12 localization in wild-type knockin (WT-KI), SR-motif phosphorylation site knockin (4xSA-KI), or SR-motif deletion (ΔSR-KI) mESCs was determined by immunofluorescence. Scalebar: 20 μm (Left). Quantification of the Nucleus/cytosol fluorescence intensity ratio (Right). Data represented as mean ± SEM. […] (^∗∗∗∗) p < 0.0001. (B) RNF12 4xSA-KI mESCs were treated with 30 nM leptomycin B for 6 h and RNF12 localization analyzed by immunofluorescence. Scale bar: 20 μm (Top). Quantification of the nucleus/cytosol fluorescence intensity ratio (Bottom). […] (^∗∗∗∗) p < 0.0001. (C) FLAG-tagged SRPK1 and SRPK2 were expressed in mESCs and localization of SRPKs and RNF12 analyzed by immunofluorescence. Scale bar: 20 μm (Left). Quantification of the cytosol/nucleus fluorescence intensity ratio (Right). […] (^∗∗∗∗) p < 0.0001. […] RNF12, REX1 and ERK1/2 were detected by immunoblotting. (^∗) indicates non-specific signal. (E) REX1 levels were analyzed in RNF12 WT-KI, 4xSA-KI, ΔSR-KI, and W576Y-KI mESCs by immunoprecipitation followed by immunoblotting. ERK1/2 levels were detected by immunoblotting. (F) REX1 half-life was determined in RNF12 WT-KI, 4xSA-KI, ΔSR-KI, and W576Y-KI mESCs by immunoblotting. (Top) quantification of HA-REX1 protein levels normalized to ERK1/2 and calculated protein half-life (Bottom). […]

SMILES | RNF12 SR-motif phosphorylation (phos-tag) [1] | RNF12 phospho-Ser214/total ratio [4] | other results
CN1CCN(C(=O)C(C)(C)c2ccc(C(=O)Nc3cn4cc(-c5ccncc5)ccc4n3)cc2)CC1 [CLK-IN-T3] | minor effect | little impact | Foxp1 exon 16b-exon 16 inclusion ([2]; 1 μM): promotes exon 16b inclusion while suppressing inclusion of exon 16; SRSF phosphorylation [3]: widespread, robust inhibition
COc1ccc2c(C)nc(Nc3nc(C)c(C)c(=O)[nH]3)nc2c1 [Madrasin] |  |  | Foxp1 exon 16b-exon 16 inclusion ([2]; 10 μM): promotes inclusion of exon 16b over exon 16
O=C1NC(=NCc2cccs2)S/C1=C\c1ccc2ncccc2c1 [RO-3306] | little impact | some effect | 
O=C(Nc1cc(C(F)(F)F)ccc1N1CCN(Cc2ccccn2)CC1)c1ccc(-c2ccncc2)o1 [SPHINX31] | minor effect |  | 
O=C(Nc1cc(C(F)(F)F)ccc1N1CCCCC1)c1ccncc1 [SRPIN340] |  |  | IC50 [5]: 4.7 µM
CN1CC[C@H](c2c(O)cc(O)c3c(=O)cc(-c4ccccc4Cl)oc23)[C@H](O)C1 [flavopiridol] | little impact | some effect | 
CCC(=C/[C@H](C)C/C=C/C(C)=C/[C@@H](C)C(=O)[C@@H](C)[C@H](O)[C@@H](C)C/C(C)=C/C(=O)O)/C=C/[C@@H]1OC(=O)C=C[C@@H]1C [leptomycin B] |  |  | RNF12 4xSA localization [6]: primarily nuclear; nucleus/cytosol ratio of RNF12 4xSA (fluorescence intensity, mean) [6]: 4.08

Reference: paper PMC7725506, “Functional Diversification of SRSF Protein Kinase to Control Ubiquitin-Dependent Neurodevelopmental Signaling” (Developmental Cell, 2020)
